US6706663B2, “Herbicidal 3-heterocyclic substituted benzisothiazole and benzisoxazole compounds” (Wyeth, priority 2000, dated 2004)

Tests used:
[1] = system: CYPSE (Cyperus serotinus); experiment: Flooded paddy, postemergence weed control; type: in vivo, Rottb.; conditions: postemergence weeds, rated 3-4 weeks after treatment
Summary of the method: (§1)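 Visual 0-9 score (stand, vigor, malformation, size, chlorosis, overall appearance vs untreated control) taken 3-4 wk post-treatment. Weeds 3-5 cm, rice 1.5-2.5 leaf stage, flood 1.5-3 cm; compound into flood water, ~0.0320-0.2500 kg/ha, aqueous/acetone 50/50 v/v.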

CYPIR (Cyperus iria) [2] = experiment: Flooded paddy, postemergence weed control; type: in vivo; conditions: postemergence weeds, rated 3-4 weeks after treatment
Summary of the method: as §1

ORYSAT (Rice, Tebonnet) [3] = experiment: Postemergence herbicidal evaluation; type: in vivo, Oryza sativa, (L.) Tebonnet; conditions: postemergence
Summary of the method: (§2)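 Seedlings grown for about two weeks were sprayed postemergence and then kept under standard greenhouse care. Injury was rated visually 4–5 weeks after treatment on a 0–9 scale against untreated controls, and ratings from repeat tests were averaged.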

[4] = system: MOOVA (Monochoria vaginalis); experiment: Flooded paddy, postemergence weed control; type: in vivo, Presl.; conditions: postemergence weeds, rated 3-4 weeks after treatment
Summary of the method: as §1

ZEAMX (Corn, Field) = experiment: Postemergence herbicidal evaluation; type: in vivo, Zea mays, L.; conditions: postemergence
Summary of the method: as §2

[5] = system: ECHORC (Echinochloa oryzoides); experiment: Flooded paddy, postemergence weed control; type: in vivo, Echinochloa oryzoides (Ard.) Fritsch.; conditions: postemergence weeds, rated 3-4 weeks after treatment
Summary of the method: as §1

[6] = system: SAGPY (Sagittaria pygmaea); experiment: Flooded paddy, postemergence weed control; type: in vivo, L.; conditions: postemergence weeds, rated 3-4 weeks after treatment
Summary of the method: as §1

ORYSAT (Rice, Tebonnet) [7] = experiment: Preemergence herbicidal evaluation; type: in vivo, Oryza sativa, (L.) Tebonnet; conditions: rated 4-5 weeks after treatment
[8] = system: CHEAL (Chenopodium album); experiment: Postemergence herbicidal evaluation; type: in vivo, L.; conditions: postemergence
Summary of the method: as §2

[9] = system: AMBEL (Ambrosia artemisifolia); experiment: Postemergence herbicidal evaluation; type: in vivo, L.; conditions: postemergence
Summary of the method: as §2

[10] = system: CASOB (Cassia obtusifolia); experiment: Postemergence herbicidal evaluation; type: in vivo, L.; conditions: postemergence
Summary of the method: as §2

[11] = system: IPOHE (Ipomoea hederacea); experiment: Preemergence herbicidal evaluation; type: in vivo, (L.) Jacq.; conditions: rated 4-5 weeks after treatment
[12] = system: ECHCG (Echinochloa crus-galli); experiment: Postemergence herbicidal evaluation; type: in vivo, (L.) Beau; conditions: postemergence
Summary of the method: as §2

[13] = system: GLXMAW (Soybean, Williams); experiment: Preemergence herbicidal evaluation; type: in vivo, Glycine max, (L.) Merr. cv Williams; conditions: rated 4-5 weeks after treatment
[14] = system: TRZAWR (Wheat, Winter, cv Riband); experiment: Preemergence herbicidal evaluation; type: in vivo, Triticum aestivum; conditions: rated 4-5 weeks after treatment
Summary of the method: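 Seeds mixed with potting soil were planted atop about one inch of soil, then sprayed with test compound in aqueous acetone. Cups were kept in the greenhouse and rated visually 4–5 weeks after treatment on a 0–9 scale against untreated control.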

[15] = system: ECHORC (Echinochloa oryzoides); experiment: Flooded paddy, preemergence weed control; type: in vivo, Echinochloa oryzoides (Ard.) Fritsch.; conditions: rated 3-4 weeks after treatment, 0-9 rating scale
Summary of the method: (§3)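 Scoring used a 0-9 visual scale relative to control. Before that, seeds or propagules were planted shallowly in silt loam and flooded to 1.5–3 cm, a depth maintained throughout, with greenhouse care during the test.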

[16] = system: SAGPY (Sagittaria pygmaea); experiment: Flooded paddy, preemergence weed control; type: in vivo, L.; conditions: rated 3-4 weeks after treatment, 0-9 rating scale
Summary of the method: as §3

ORYSAT (Rice, Tebonnet) [17] = experiment: Flooded paddy, post-transplant and postemergence rice tolerance; type: in vivo, Oryza sativa, (L.) Tebonnet; conditions: post-transplant rice, rated 3-4 weeks after treatment
Summary of the method: as §1

CYPIR (Cyperus iria) [18] = experiment: Flooded paddy, preemergence weed control; type: in vivo; conditions: rated 3-4 weeks after treatment, 0-9 rating scale
Summary of the method: as §3

Cn1c(C(F)(F)F)cc(=O)n(-c2ccc3snc(-c4nccs4)c3c2)c1=O [Compound 53, 1-methyl-3-[3-(2-thiazolyl)-1,2-benzisothiazol-5-yl]-6-(trifluoromethyl)uracil]
6.5: AMBEL herbicidal rating ([9]; rate 0.0320 kg/ha) | Preemergence herbicidal rating GLXMAW ([13]; Rate 0.2500 kg/ha)
3.0: ORYSAT herbicidal rating (ORYSAT (Rice, Tebonnet) [3]; rate 0.0320 kg/ha) | ORYSAT herbicidal rating (ORYSAT (Rice, Tebonnet) [3]; rate 0.1250 kg/ha) | Preemergence herbicidal rating ORYSAT (ORYSAT (Rice, Tebonnet) [7]; Rate 0.1250 kg/ha) | CASOB herbicidal rating ([10]; rate 0.1250 kg/ha) | Preemergence herbicidal rating IPOHE ([11]; Rate 0.1250 kg/ha) | herbicidal rating, ECHORC ([15]; rate 0.0080 kg/ha)
8.0: herbicide rating (0-9) CYPSE ([1]; 0.0620 kg/ha into flood water) | herbicide rating (0-9) CYPSE ([1]; 0.1250 kg/ha into flood water) | herbicide rating (0-9) ECHORC ([5]; 0.1250 kg/ha into flood water) | Preemergence herbicidal rating IPOHE ([11]; Rate 0.2500 kg/ha)
8.3: herbicidal rating, CYPIR (CYPIR (Cyperus iria) [18]; rate 0.0320 kg/ha)
2.0: herbicide rating (0-9) MOOVA ([4]; 0.1250 kg/ha into flood water) | herbicide rating (0-9) ECHORC ([5]; 0.0320 kg/ha into flood water) | CASOB herbicidal rating ([10]; rate 0.0320 kg/ha) | ECHCG herbicidal rating ([12]; rate 0.0620 kg/ha) | herbicide rating (0-9) ORYSAT (rice tolerance) (ORYSAT (Rice, Tebonnet) [17]; 0.0320 kg/ha into flood water)
9.0: CHEAL herbicidal rating ([8]; rate 0.1250 kg/ha) | AMBEL herbicidal rating ([9]; rate 0.0620 kg/ha) | AMBEL herbicidal rating ([9]; rate 0.1250 kg/ha) | herbicidal rating, ECHORC ([15]; rate 0.0320 kg/ha) | herbicidal rating, ECHORC ([15]; rate 0.1250 kg/ha) | herbicidal rating, SAGPY ([16]; rate 0.1250 kg/ha) | herbicidal rating, CYPIR (CYPIR (Cyperus iria) [18]; rate 0.0080 kg/ha) | herbicidal rating, CYPIR (CYPIR (Cyperus iria) [18]; rate 0.1250 kg/ha)
5.0: ZEAMX herbicidal rating (ZEAMX (Corn, Field); rate 0.0620 kg/ha) | Preemergence herbicidal rating ORYSAT (ORYSAT (Rice, Tebonnet) [7]; Rate 0.2500 kg/ha) | Preemergence herbicidal rating TRZAWR ([14]; Rate 0.2500 kg/ha)
4.3: herbicidal rating, SAGPY ([16]; rate 0.0320 kg/ha)
6.0: herbicide rating (0-9) ORYSAT (rice tolerance) (ORYSAT (Rice, Tebonnet) [17]; 0.1250 kg/ha into flood water)
5.5: ZEAMX herbicidal rating (ZEAMX (Corn, Field); rate 0.1250 kg/ha)
4.5: ZEAMX herbicidal rating (ZEAMX (Corn, Field); rate 0.0320 kg/ha) | CHEAL herbicidal rating ([8]; rate 0.0320 kg/ha)
2.5: Preemergence herbicidal rating GLXMAW ([13]; Rate 0.1250 kg/ha)
3.5: ORYSAT herbicidal rating (ORYSAT (Rice, Tebonnet) [3]; rate 0.0620 kg/ha) | Preemergence herbicidal rating TRZAWR ([14]; Rate 0.1250 kg/ha)
7.0: herbicide rating (0-9) CYPIR (CYPIR (Cyperus iria) [2]; 0.1250 kg/ha into flood water) | herbicide rating (0-9) ECHORC ([5]; 0.0620 kg/ha into flood water) | CHEAL herbicidal rating ([8]; rate 0.0620 kg/ha)
4.0: CASOB herbicidal rating ([10]; rate 0.0620 kg/ha) | herbicide rating (0-9) ORYSAT (rice tolerance) (ORYSAT (Rice, Tebonnet) [17]; 0.0620 kg/ha into flood water)
1.0: Preemergence herbicidal rating ORYSAT (ORYSAT (Rice, Tebonnet) [7]; Rate 0.0620 kg/ha) | Preemergence herbicidal rating IPOHE ([11]; Rate 0.0620 kg/ha) | ECHCG herbicidal rating ([12]; rate 0.0320 kg/ha) | ECHCG herbicidal rating ([12]; rate 0.1250 kg/ha) | Preemergence herbicidal rating GLXMAW ([13]; Rate 0.0620 kg/ha) | Preemergence herbicidal rating TRZAWR ([14]; Rate 0.0620 kg/ha)
0.0: herbicide rating (0-9) CYPSE ([1]; 0.0320 kg/ha into flood water) | herbicide rating (0-9) CYPIR (CYPIR (Cyperus iria) [2]; 0.0320 kg/ha into flood water) | herbicide rating (0-9) MOOVA ([4]; 0.0320 kg/ha into flood water) | herbicide rating (0-9) MOOVA ([4]; 0.0620 kg/ha into flood water) | herbicide rating (0-9) SAGPY ([6]; 0.0320 kg/ha into flood water) | herbicide rating (0-9) SAGPY ([6]; 0.0620 kg/ha into flood water) | herbicide rating (0-9) SAGPY ([6]; 0.1250 kg/ha into flood water) | herbicidal rating, SAGPY ([16]; rate 0.0080 kg/ha)

Cn1c(C(F)(F)F)cc(=O)n(-c2cc3c(C4OCCO4)nsc3cc2F)c1=O [Compound 61, 3-[3-(1,3-dioxolan-2-yl)-6-fluoro-1,2-benzisothiazol-5-yl]-1-methyl-6-(trifluoromethyl)uracil]
8.0: herbicide rating (0-9) SAGPY ([6]; 0.0620 kg/ha into flood water)
6.0: herbicide rating (0-9) SAGPY ([6]; 0.0320 kg/ha into flood water)
8.5: Preemergence herbicidal rating TRZAWR ([14]; Rate 0.0160 kg/ha)
5.5: ORYSAT herbicidal rating (ORYSAT (Rice, Tebonnet) [3]; rate 0.0320 kg/ha) | ZEAMX herbicidal rating (ZEAMX (Corn, Field); rate 0.0320 kg/ha) | ZEAMX herbicidal rating (ZEAMX (Corn, Field); rate 0.0620 kg/ha)
3.0: ECHCG herbicidal rating ([12]; rate 0.0620 kg/ha) | herbicidal rating, SAGPY ([16]; rate 0.0080 kg/ha)
8.7: Preemergence herbicidal rating ORYSAT (ORYSAT (Rice, Tebonnet) [7]; Rate 0.0160 kg/ha) | herbicidal rating, ECHORC ([15]; rate 0.0080 kg/ha) | herbicidal rating, CYPIR (CYPIR (Cyperus iria) [18]; rate 0.0080 kg/ha)
8.3: herbicidal rating, SAGPY ([16]; rate 0.0320 kg/ha)
5.0: ECHCG herbicidal rating ([12]; rate 0.0320 kg/ha)
0.0: Preemergence herbicidal rating ORYSAT (ORYSAT (Rice, Tebonnet) [7]; Rate 0.0002 kg/ha) | Preemergence herbicidal rating IPOHE ([11]; Rate 0.0002 kg/ha) | Preemergence herbicidal rating GLXMAW ([13]; Rate 0.0002 kg/ha) | Preemergence herbicidal rating TRZAWR ([14]; Rate 0.0002 kg/ha)
9.0: herbicide rating (0-9) CYPSE ([1]; 0.0320 kg/ha into flood water) | herbicide rating (0-9) CYPSE ([1]; 0.0620 kg/ha into flood water) | herbicide rating (0-9) CYPSE ([1]; 0.1250 kg/ha into flood water) | herbicide rating (0-9) CYPIR (CYPIR (Cyperus iria) [2]; 0.0320 kg/ha into flood water) | herbicide rating (0-9) CYPIR (CYPIR (Cyperus iria) [2]; 0.0620 kg/ha into flood water) | herbicide rating (0-9) CYPIR (CYPIR (Cyperus iria) [2]; 0.1250 kg/ha into flood water) | herbicide rating (0-9) MOOVA ([4]; 0.0320 kg/ha into flood water) | herbicide rating (0-9) MOOVA ([4]; 0.0620 kg/ha into flood water) | herbicide rating (0-9) MOOVA ([4]; 0.1250 kg/ha into flood water) | herbicide rating (0-9) ECHORC ([5]; 0.0320 kg/ha into flood water) | herbicide rating (0-9) ECHORC ([5]; 0.0620 kg/ha into flood water) | herbicide rating (0-9) ECHORC ([5]; 0.1250 kg/ha into flood water) | herbicide rating (0-9) SAGPY ([6]; 0.1250 kg/ha into flood water) | Preemergence herbicidal rating ORYSAT (ORYSAT (Rice, Tebonnet) [7]; Rate 0.0320 kg/ha) | CHEAL herbicidal rating ([8]; rate 0.0320 kg/ha) | CHEAL herbicidal rating ([8]; rate 0.0620 kg/ha) | AMBEL herbicidal rating ([9]; rate 0.0320 kg/ha) | AMBEL herbicidal rating ([9]; rate 0.0620 kg/ha) | CASOB herbicidal rating ([10]; rate 0.0320 kg/ha) | Preemergence herbicidal rating IPOHE ([11]; Rate 0.0160 kg/ha) | Preemergence herbicidal rating IPOHE ([11]; Rate 0.0320 kg/ha) | Preemergence herbicidal rating GLXMAW ([13]; Rate 0.0160 kg/ha) | Preemergence herbicidal rating GLXMAW ([13]; Rate 0.0320 kg/ha) | Preemergence herbicidal rating TRZAWR ([14]; Rate 0.0320 kg/ha) | herbicidal rating, ECHORC ([15]; rate 0.0320 kg/ha) | herbicidal rating, ECHORC ([15]; rate 0.1250 kg/ha) | herbicidal rating, SAGPY ([16]; rate 0.1250 kg/ha) | herbicide rating (0-9) ORYSAT (rice tolerance) (ORYSAT (Rice, Tebonnet) [17]; 0.0320 kg/ha into flood water) | herbicide rating (0-9) ORYSAT (rice tolerance) (ORYSAT (Rice, Tebonnet) [17]; 0.0620 kg/ha into flood water) | herbicide rating (0-9) ORYSAT (rice tolerance) (ORYSAT (Rice, Tebonnet) [17]; 0.1250 kg/ha into flood water) | herbicidal rating, CYPIR (CYPIR (Cyperus iria) [18]; rate 0.0320 kg/ha) | herbicidal rating, CYPIR (CYPIR (Cyperus iria) [18]; rate 0.1250 kg/ha)
